Data taken from US9517214B2, “Fat-based food products” (IP Science Limited, priority 2011, dated 2016).

Key:
[1] = test system: clinically healthy volunteers with hypercholesterolaemia; assay: Serum lipids (TC, TG, HDL, LDL) in trial of lycopene, butter and L-Butter; type: in vivo, human; conditions: after one week of administration of 7 mg of lycopene
Protocol: (§1) Clinically Healthy Volunteers with Hypercholesterolaemia
(§2) Commercially available butter (President, Lactalis) was melted at 40° C. The melted butter was blended with tomato oleoresin, containing 15% of lycopene (Lyc-O-Mato), in the ratio of […] of oleoresin to 30 g of the butter in a thermo-controlled mixer. The mixture was blended for 10 minutes and cooled down to the room temperature. The butter was then divided into daily 30 g portions. Butter was stored at 4° C. until use. Freshly made batches of the L-Butter were made weekly.
(§3) Each portion of 30 g butter contained 47.1 mg of tomato oleoresin or about 7 mg of lycopene.
(§4) The melting and mixing procedures were performed as described above using the same commercially available butter, but instead of tomato oleoresin, sunflower oil (Flora™) was used.
(§5) 47.1 mg of tomato oleoresin was pre-dissolved in ethanol and mixed with Whey Protein as described in Richelle et al (2002) J. Nutr 132 404-408, WO01/091588 and US2002/01072992. Then the mixture was placed into gelatine capsules.
(§6) 18 clinically healthy volunteers, 9 males and 9 females, age 45-69, were recruited for this study.
(§7) • elevated total serum cholesterol above 200 mg/dL and/or triglycerides above 150 mg/dL, • all patients were naive for any lipid-lowering medications, • willing participate in the study. […]
(§8) All blood samples were coded. Their lab analysis and reading of the results were blinded. […]

[2] = test system: clinically healthy volunteers with hypercholesterolaemia; assay: Antibody inflammatory marker Px-IgG in the same trial; type: in vivo, human; conditions: 7 mg lycopene daily, capsules; Baseline; individual volunteers
Protocol: as §1, §2, §3, §4, §5, §6, §7, §8

[3] = daily consumption of 6-10 mg lycopene; cited from earlier work

## CC(C)=CCC/C(C)=C/C=C/C(C)=C/C=C/C(C)=C/C=C/C=C(C)/C=C/C=C(C)/C=C/C=C(\C)CCC=C(C)C [Lycopene]
[1]
  changes in levels of elevated cholesterol, triglycerides and markers of oxidative damage or inflammation: not any changes
[2]
  Px-IgG: 0.765 U/ml
[3]
  effect on cholesterol or other blood lipids: no effect
